In US6436365B2, “Process for therapeutic treatment of proliferative diseases” (Schering Aktiengesellschaft, priority 1997, dated 2002):

Experiments:
[1] = Topical administration via microperforated balloon catheter after balloon denudation of the infraranal aorta, gamma camera measurement of activity in the lesion; assay type: in vivo, white New Zealand rabbit
Experimental: The test animal was a white New Zealand rabbit (internal animal identification no.: 1584, male, 3.4 kg of body weight).
(§1) Under anesthesia (Rompun/Ketavet 1:2, 1 ml/kg of body weight, i.m. administration), the endothelium was damaged with a balloon catheter in the infraranal aorta (balloon denudation). Then, over a period of 5 minutes, technetium 99m-labeled HMPAO was administered to the test animal via a microperforated balloon catheter (4 mm Match-35 PTA, Schneider Company, FRG). The radioactive dose of 0.64 mCi (=23.68 MBq) was administered in a volume of 1 ml.
(§2) During the entire experiment, the test animal was under a gamma camera (Elscint SP4 HR) to measure the dispersion of radioactivity in the body. The activity in the lesion was set as a proportion of the total activity (measured at this time in the animal). In the case of this test animal, there was found:
The test animal was a white New Zealand rabbit (internal animal identification no.: 1587, male, 3.5 kg of body weight).
as §1, with “1.18” for “0.64”, “(=43.66” for “(=23.68”
The test animal was a white New Zealand rabbit (internal animal identification no.: 1586, male, 3.3 kg of body weight).
as §1, with “0.45” for “0.64”, “(=16.65” for “(=23.68”

[2] = Topical administration via coronary perfusion/infusion catheter on arteriosclerotic lesion in the carotid artery, gamma camera measurement of activity at the lesion; assay type: in vivo, white New Zealand rabbit; settings: for % of the dose at the lesion (activity at the lesion as proportion of total activity in the animal): Example 1, rabbit no. 1708, 0.48 mCi in 0.85 ml; for % of the dose at the lesion (activity in the lesion as proportion of total activity in the animal): Example 2, rabbit no. 1856, 1.91 mCi in 1.0 ml
Experimental: The test animal, a white New Zealand rabbit (internal animal identification no.: 1708, male, 3.7 kg of body weight), was prepared 4 weeks before the actual administration experiment:
Under anesthesia (Rompun/Ketavet 1:2, 1 ml/kg of body weight, i.m. administration), the endothelium was damaged with a 2F Fogarthy balloon catheter in the arteria carotis dextra (balloon denudation). Then, the animal received a special diet with an addition of 0.2% cholesterol. The test animal developed an arteriosclerotic lesion on the balloon-denuded spot created by this pretreatment.
(§3) Topical administration of HMPAO that was labeled with technetium 99m was carried out on the anesthetized test animal (anesthesia type s.o.) via a coronary perfusion/infusion catheter (dispatch 3.0, Xtra slippery coating, manufacturer: Boston Scientific Corporation, Ratingen) directly on the lesion in the carotid artery. The radioactive dose of 0.48 mCi (=17.76 MBq) was administered in a volume of 0.85 ml.
as §2, with “The activity at the lesion” for “The activity in the lesion”
The test animal, a white New Zealand rabbit (internal animal identification no.: 1856, male, 3.3 kg of body weight), was prepared 4 weeks before the actual administration experiment as follows:
as §3, with “The topical administration” for “Topical administration”, “of the” for “of”, “of 1.91” for “of 0.48”, “mCi (=70.67” for “mCi (=17.76”, “of 1.0 ml (flushing with 0.3 ml of physiological saline solution).” for “of 0.85 ml.”
During the entire experiment, the test animal was under a gamma camera (Elscint SP4 HR) to measure the dispersion of radioactivity in the body. The activity in the lesion was set as a proportion of the total activity (measured at this time in the animal).

- % of the dose at the lesion (activity in the lesion as proportion of total activity in the animal) ([1]; 5 minutes post administration, Example 3, rabbit no. 1584, 0.64 mCi in 1 ml): 38.45%
- % of the dose at the lesion (activity in the lesion as proportion of total activity in the animal) ([1]; 5 minutes post administration, Example 4, rabbit no. 1587, 1.18 mCi in 1 ml): 37.06%
- % of the dose at the lesion (activity in the lesion as proportion of total activity in the animal) ([1]; 5 minutes post administration, Example 5, rabbit no. 1586, 0.45 mCi in 1 ml): 45.56%
- % of the dose at the lesion (activity in the lesion as proportion of total activity in the animal) ([1]; 4 hours post administration, Example 3, rabbit no. 1584, 0.64 mCi in 1 ml): 35.64%
- % of the dose at the lesion (activity in the lesion as proportion of total activity in the animal) ([1]; 4 hours post administration, Example 4, rabbit no. 1587, 1.18 mCi in 1 ml): 32.03%
- % of the dose at the lesion (activity in the lesion as proportion of total activity in the animal) ([1]; 4 hours post administration, Example 5, rabbit no. 1586, 0.45 mCi in 1 ml): 36.39%
- % of the dose at the lesion (activity in the lesion as proportion of total activity in the animal) ([1]; 24 hours post administration, Example 3, rabbit no. 1584, 0.64 mCi in 1 ml): 16.63%
- % of the dose at the lesion (activity in the lesion as proportion of total activity in the animal) ([1]; 24 hours post administration, Example 4, rabbit no. 1587, 1.18 mCi in 1 ml): 20.01%
- % of the dose at the lesion (activity in the lesion as proportion of total activity in the animal) ([1]; 24 hours post administration, Example 5, rabbit no. 1586, 0.45 mCi in 1 ml): 15.24%
- % of the dose at the lesion (activity at the lesion as proportion of total activity in the animal) ([2]; 5 minutes post administration): 55.38%
- % of the dose at the lesion (activity in the lesion as proportion of total activity in the animal) ([2]; 5 minutes post administration): 40.74%
- % of the dose at the lesion (activity at the lesion as proportion of total activity in the animal) ([2]; 4 hours post administration): 46.78%
- % of the dose at the lesion (activity in the lesion as proportion of total activity in the animal) ([2]; 4 hours post administration): 35.13%
- % of the dose at the lesion (activity at the lesion as proportion of total activity in the animal) ([2]; 24 hours post administration): 21.45%
- % of the dose at the lesion (activity in the lesion as proportion of total activity in the animal) ([2]; 24 hours post administration): 23.69%
SMILES: C/C(=N\O)C(C)NCC(C)(C)CNC(C)/C(C)=N/O (stereo not drawn) [Example 99mTc-HMPAO, metal not drawn]
